Measurements as given in patent US10774084B2, “Adenine derivatives and their use as UV-photoprotective agents” (UNIVERZITA PALACKEHO V OLOMOUCI, priority 2015, dated 2020).

Columns and labels:
caspase-3 activity = assay: UVB-induced caspase-3 activity in NHDF (Ac-DEVD-AMC); type: cell-based, human
Description: Normal human dermal fibroblasts (NHDF) were used as an in vitro model. Cells were isolated from tissue specimens obtained from healthy patients undergoing plastic surgery at the Department of Plastic and Aesthetic Surgery (University Hospital Olomouc). The use of skin tissue was in accordance with the Ethics Committee of the University Hospital and Faculty of Medicine and Dentistry, Palacky University, Olomouc and all patients signed written informed consent. Fibroblasts were used between the 2nd and 4th passage. For all experiments the fibroblasts were seeded onto 6-well plates at a density of 0.5×10^5 cells/cm^2 of cultivation medium (DMEM supplemented with fetal calf serum (10%, v/v), penicillin (100 mg/ml) and streptomycin (100 U/ml)).
Test compounds included 6-(tetrahydrofuran-2-ylmethylamino)-9-(tetrahydrofuran-2-yl)purine and positive control (rosmarinic acid). […] Intensity of UVB radiation was evaluated before each irradiation by UVB-meter. […] After 4 hours (37° C., 5% CO2) cell damage was evaluated by analysis of caspase-3 activity.
Caspase-3 activity was evaluated by specific substrate (Ac-DEVD-AMC). […] Fluorescence was measured at (400/505 nm) after 1 hour incubation (37° C., dark). Protein content was analyzed spectrophotometrically by Bradford protein assay (INFINITE M200, Tecan, Switzerland). […]

[1] = system: Normal Human Epidermal Keratinocytes (NHEK); assay: In vitro phototoxicity test (neutral red) on NHEK; type: cell-based
Description: Normal Human Epidermal Keratinocytes (NHEK) were used as an in vitro model. Cells were isolated from tissue specimens obtained from healthy patients undergoing plastic surgery at the Department of Plastic and Aesthetic Surgery (University Hospital Olomouc). The use of skin tissue was in accordance with the Ethics Committee of the University Hospital and Faculty of Medicine and Dentistry, Palacky University, Olomouc and all patients signed written informed consent. NHEK were used between the 3rd and 4th passage. […] Intensity of UVA radiation was evaluated before each irradiation by UVA-meter. […]
After UVA exposure PBS with glucose was discarded and serum free medium was applied. After 24 hours (37° C., 5% CO2) cell damage was evaluated by neutral red (NR) incorporation into viable cells. […] After 5 minutes of intensive shaking absorbance was measured at 540 nm. […] Phototoxic effect was evaluated as % of viability of control cells that was calculated from experimental data (absorbance) according to the following equation: […]
AS . . . absorbance of sample (cells pre-incubated with test compound in serum free medium and irradiated)
AC . . . absorbance of control (cells pre-incubated with DMSO in serum free medium and irradiated)
AB . . . absorbance of background (extraction solution)

Structure (SMILES) | effect on UVB-induced activity of caspase-3 (in words) (caspase-3 activity; UVB, NHDF) | effect on caspase-3 activity in non-irradiated cells (in words) (caspase-3 activity; non-irradiated NHDF, 2.5-20 μmol/l) | viability of NHEK cells ([1]; UVA+, 0.6 μmol/l) | viability of NHEK cells ([1]; UVA−, 12.5 μmol/l)
c1nc(NCC2CCCO2)c2ncn(C3CCCO3)c2n1 (stereo not shown) [Compound 1, 6-(tetrahydrofuran-2-ylmethylamino)-9-(tetrahydrofuran-2-yl)purine] | decreased | did not showed negative effect |  | 
CN(C)CCCN1c2ccccc2Sc2ccc(Cl)cc21 [chlorpromazine, reference compound] |  |  | below 80 % of control | below 50%
